The assay has as its target T1, human ferroportin (Homo sapiens, UniProt Q9NP59).
T1 construct: luciferase reporter (read with the Nano-Glo Luciferase Assay System); expressed in transfected cells; host or cells: CHO cells, stably transfected, expression induced with doxycycline
T1 sequence (Q9NP59 1-571): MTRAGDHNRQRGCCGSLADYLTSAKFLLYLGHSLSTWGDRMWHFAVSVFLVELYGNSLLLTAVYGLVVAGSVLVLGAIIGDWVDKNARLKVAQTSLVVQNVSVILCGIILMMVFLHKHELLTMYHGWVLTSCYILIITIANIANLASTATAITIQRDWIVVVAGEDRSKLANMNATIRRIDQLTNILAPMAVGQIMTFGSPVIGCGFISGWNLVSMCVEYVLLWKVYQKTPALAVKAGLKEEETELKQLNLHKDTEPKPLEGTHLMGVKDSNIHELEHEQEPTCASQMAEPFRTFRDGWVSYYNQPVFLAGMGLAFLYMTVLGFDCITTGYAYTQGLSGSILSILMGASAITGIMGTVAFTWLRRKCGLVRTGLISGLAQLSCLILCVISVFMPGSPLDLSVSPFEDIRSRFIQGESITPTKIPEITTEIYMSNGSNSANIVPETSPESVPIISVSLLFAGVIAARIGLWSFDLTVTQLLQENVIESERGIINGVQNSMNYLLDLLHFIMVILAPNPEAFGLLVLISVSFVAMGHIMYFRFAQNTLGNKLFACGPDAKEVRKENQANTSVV
As to the kind of experiment: Biological in-vitro ferroportin internalization assay (luciferase reporter). In kind it is cell-based. The settings on record: average pEC50; stably-transfected CHO cell line expressing human ferroportin tagged to a luciferase reporter; 6 h incubation with test compound. As to the method:
The protocol for this assay is generally as described in WO2018/128828, incorporated herein by reference in its entirety. Functional internalization of ferroportin protein was measured using a stably-transfected CHO cell line expressing the human ferroportin tagged to a luciferase reporter. Cells were plated for 24 h in the presence of ferric ammonium citrate (FAC). Ferroportin protein expression was induced with doxycycline for 24 h. The next day, the compounds were added. Test compounds were dissolved in DMSO. Cells were incubated with the test compounds for 6 h, and subsequently luciferase activity was measured using the Nano-Glo Luciferase Assay System and Glomax (Promega, Madison, Wis.). The average pEC50 was determined for the test compounds.

For orientation: pEC50 means the EC50 on a negative log10 scale, so that one unit is a factor of ten. A lower pEC50 goes with a high EC50.

In the case of `C[C@@H]1OC[C@@H]1Oc1ccnc(-c2nc3c(c(N(C)CC(=O)NC(C)(C)C)n2)CCC3)c1` (racemic) [Compound 332, N-tert-butyl-2-{methyl[2-(4-{[(2S,3S)-2-methyloxetan-3-yl]oxy}pyridin-2-yl)-5H,6H,7H-cyclopenta[d]pyrimidin-4-yl]amino}acetamide], the pEC50 is given as 7.8. For the compound `C[C@H]1OC[C@@H]1Oc1ccnc(-c2nc3c(c(N(C)CC(=O)NC(C)(C)C)n2)CCC3)c1` (racemic) [Compound 333, N-tert-butyl-2-{methyl[2-(4-{[(2R,3S)-2-methyloxetan-3-yl]oxy}pyridin-2-yl)-5H,6H,7H-cyclopenta[d]pyrimidin-4-yl]amino}acetamide], the pEC50 was determined as 7.8. The compound `COc1ccnc(-c2nc3c(c(N(C)CC(=O)N[C@@H]4CCC[C@@H]4O)n2)CCC3)c1` (relative stereo) [Compound 170, N-[(1R,2S)-2-hydroxycyclopentyl]-2-{[2-(4-methoxypyridin-2-yl)-5H,6H,7H-cyclopenta[d]pyrimidin-4-yl](methyl)amino}acetamide] returned a pEC50 of 7.8. Consider `COc1ccnc(-c2nc3c(c(N(C)CC(=O)N[C@@H]4CCC[C@H]4O)n2)CCC3)c1` (relative stereo) [Compound 172, N-[(1R,2R)-2-hydroxycyclopentyl]-2-{[2-(4-methoxypyridin-2-yl)-5H,6H,7H-cyclopenta[d]pyrimidin-4-yl](methyl)amino}acetamide], for which the pEC50 is given as 7.5. The same measure for `COc1ccnc(-c2nc3c(c(N(C)CC(=O)N[C@@H]4CCCC[C@@H]4O)n2)CCC3)c1` (stereo in doubt) [Compound 168, N-[(1R,2S)-2-hydroxycyclohexyl]-2-{[2-(4-methoxypyridin-2-yl)-5H,6H,7H-cyclopenta[d]pyrimidin-4-yl](methyl)amino}acetamide]: 7.3; for `COc1ccnc(-c2nc3c(c(N(C)CC(=O)N[C@H]4CCC[C@@H]4O)n2)CCC3)c1` (stereo in doubt) [Compound 173, N-[(1S,2S)-2-hydroxycyclopentyl]-2-{[2-(4-methoxypyridin-2-yl)-5H,6H,7H-cyclopenta[d]pyrimidin-4-yl](methyl)amino}acetamide]: 6.8; for `CN(CC(=O)NC(C)(C)C)c1nc(-c2cc(OCC(O)CO)ccn2)nc2c1CCC2` (stereo in doubt) [Compound 415, N-tert-butyl-2-[(2-{4-[(2R)-2,3-dihydroxypropoxy]pyridin-2-yl}-5H,6H,7H-cyclopenta[d]pyrimidin-4-yl)(methyl)amino]acetamidede]: 7.7. In turn, `CCC(C)(O)COc1ccnc(-c2nc3c(c(N(C)CC(=O)NC(C)(C)C)n2)CCC3)c1` (stereo in doubt) [Compound 446, N-tert-butyl-2-[(2-{4-[(2R)-2-hydroxy-2-methylbutoxy]pyridin-2-yl}-5H,6H,7H-cyclopenta[d]pyrimidin-4-yl)(methyl)amino]acetamide] returned a pEC50 of 8.2.

In turn, `c1ccc(-c2nc3c(c(N4CC5CC(C4)c4ccccc45)n2)CCC3)nc1` [Compound 1, 10-[2-(pyridin-2-yl)-5H,6H,7H-cyclopenta[d]pyrimidin-4-yl]-10-azatricyclo[6.3.1.0^{2,7}]dodeca-2,4,6-triene] showed a pEC50 of 6.9. Compound `COc1ccc2c(c1)CCN(c1nc(-c3ccccn3)nc3c1CCC3)CC2` [Compound 2, 7-methoxy-3-[2-(pyridin-2-yl)-5H,6H,7H-cyclopenta[d]pyrimidin-4-yl]-2,3,4,5-tetrahydro-1H-3-benzazepine] showed a pEC50 of 6.6.

`COc1cccc2c1CCN(c1nc(-c3ccccn3)nc3c1CCC3)CC2` [Compound 3, 6-methoxy-3-[2-(pyridin-2-yl)-5H,6H,7H-cyclopenta[d]pyrimidin-4-yl]-2,3,4,5-tetrahydro-1H-3-benzazepine] had a pEC50 of 6.8. In turn, `COc1cccc(N2CCCN(c3nc(-c4ccccn4)nc4c3CCC4)CC2)c1` [Compound 4, 1-(3-methoxyphenyl)-4-[2-(pyridin-2-yl)-5H,6H,7H-cyclopenta[d]pyrimidin-4-yl]-1,4-diazepane] gave a pEC50 of 6.4. As for `O=C(CNc1nc(-c2ccccn2)nc2c1CCC2)Nc1ccccn1` [Compound 5, N-(pyridin-2-yl)-2-{[2-(pyridin-2-yl)-5H,6H,7H-cyclopenta[d]pyrimidin-4-yl]amino}acetamide], the pEC50 is reported as 6.2. The compound `O=C(CNc1nc(-c2ccccn2)nc2c1CCC2)Nc1ccccc1F` [Compound 6, N-(2-fluorophenyl)-2-{[2-(pyridin-2-yl)-5H,6H,7H-cyclopenta[d]pyrimidin-4-yl]amino}acetamide] came in with a pEC50 of 6.5. `O=C(CNc1nc(-c2ccccn2)nc2c1CCC2)Nc1ccc2cccnc2c1` [Compound 7, 2-{[2-(pyridin-2-yl)-5H,6H,7H-cyclopenta[d]pyrimidin-4-yl]amino}-N-(quinolin-7-yl)acetamide]: the pEC50 is listed as 6.6.

As for `CC(C)(C)NC(=O)CNc1cc(-c2ccccn2)nc2c1CCC2` [Compound 9, N-tert-butyl-2-{[2-(pyridin-2-yl)-5H,6H,7H-cyclopenta[b]pyridin-4-yl]amino}acetamide], the pEC50 was 6.2.

`CC(C)(C)NC(=O)CNc1nc(-c2ccccn2)nc2c1CCCC2` [Compound 10, N-tert-butyl-2-{[2-(pyridin-2-yl)-5,6,7,8-tetrahydroquinazolin-4-yl]amino}acetamide] returned a pEC50 of 6.6. On to `COc1ccc(NC2CCCN(c3nc(-c4ccccn4)nc4c3CCC4)C2)cc1` (centres unmarked) [Compound 11, N-(4-methoxyphenyl)-1-[2-(pyridin-2-yl)-5H,6H,7H-cyclopenta[d]pyrimidin-4-yl]piperidin-3-amine], for which the pEC50 came to 6.3. As for `COc1cnc(-c2nc3c(c(N(C)CC(=O)NC(C)(C)C)n2)CCC3)cn1` [Compound 12, N-tert-butyl-2-{[2-(5-methoxypyrazin-2-yl)-5H,6H,7H-cyclopenta[d]pyrimidin-4-yl](methyl)amino}acetamide], the pEC50 was found to be 5.8.

For `CN(C)c1ccnc(-c2nc3c(c(N4CCCCCC4)n2)CCC3)c1` [Compound 13, 2-[4-(azepan-1-yl)-5H,6H,7H-cyclopenta[d]pyrimidin-2-yl]-N,N-dimethylpyridin-4-amine], the pEC50 worked out at 6.4. Turning to `Cc1ccnc(-c2nc3c(c(N4CCCCCC4)n2)CCC3)c1` [Compound 14, 1-[2-(4-methylpyridin-2-yl)-5H,6H,7H-cyclopenta[d]pyrimidin-4-yl]azepane], the pEC50 is on record as 6.8.

The compound `COc1ccccc1NC(=O)CN(C)c1nc(-c2ccccn2)nc2c1CCC2` [Compound 15, N-(2-methoxyphenyl)-2-{methyl[2-(pyridin-2-yl)-5H,6H,7H-cyclopenta[d]pyrimidin-4-yl]amino}acetamide] gave a pEC50 of 6.9. `CN(CC(=O)NC(C)(C)C)c1cc(-c2ccccn2)nc2c1CCC2` [Compound 16, N-tert-butyl-2-{methyl[2-(pyridin-2-yl)-5H,6H,7H-cyclopenta[b]pyridin-4-yl]amino}acetamide] gave a pEC50 of 6.6. With `CN(c1nc(-c2ccccn2)nc2c1CCC2)C1(C(=O)NC2CCCCC2)CC1` [Compound 17, N-cyclohexyl-1-{methyl[2-(pyridin-2-yl)-5H,6H,7H-cyclopenta[d]pyrimidin-4-yl]amino}cyclopropane-1-carboxamide] the figure was 6.6; with `c1ccc(-c2nc3c(c(N4CCCO[C@H]5CCC[C@@H]54)n2)CCC3)nc1` [Compound 18, 2-{4-[(5aS,8aS)-octahydro-2H-cyclopenta[b][1,4]oxazepin-5-yl]-5H,6H,7H-cyclopenta[d]pyrimidin-2-yl}pyridine], 7.1; with `CN(c1nc(-c2ccccn2)nc2c1CCC2)C(C)(C)C(=O)NC(C)(C)C` [Compound 19, N-tert-butyl-2-methyl-2-{methyl[2-(pyridin-2-yl)-5H,6H,7H-cyclopenta[d]pyrimidin-4-yl]amino}propanamide], 5.4.

Regarding `CC(C(=O)NC(C)(C)C)N(c1ccccc1)c1nc(-c2ccccn2)nc2c1CCC2` (centres unmarked) [Compound 20, N-tert-butyl-2-{phenyl[2-(pyridin-2-yl)-5H,6H,7H-cyclopenta[d]pyrimidin-4-yl]amino}propanamide], the pEC50 is on record as 6.7. For the compound `CN(CC(=O)Nc1ccc2cccnc2c1)c1nc(-c2ccccn2)nc2c1CCC2` [Compound 21, 2-{methyl[2-(pyridin-2-yl)-5H,6H,7H-cyclopenta[d]pyrimidin-4-yl]amino}-N-(quinolin-7-yl)acetamide], the pEC50 is recorded as 6.9. With `CN(CC(=O)Nc1ccccc1F)c1nc(-c2ccccn2)nc2c1CCC2` [Compound 22, N-(2-fluorophenyl)-2-{methyl[2-(pyridin-2-yl)-5H,6H,7H-cyclopenta[d]pyrimidin-4-yl]amino}acetamide] the figure was 7.

These data come from patent US11746100B2 (GLOBAL BLOOD THERAPEUTICS, INC., priority 2020, dated 2023).
